According to paper PMC549046 (Comparative Hepatology, 2005):
“And” between values parts separate entries of the source, which are not always exact repeats. Equal entries are not always repeated. “Also recorded” adds a separate entry of the source. Where two headings read alike, the source gives them in different places. Marks after values point to notes of the source that are not given here.

Tests used:
[1] = test system: CYP3A; assay: CYP3A 2D gel electrophoresis immunoblot of pooled liver microsomes from treated fish
Procedure: (§1) Hatchery reared juvenile Atlantic cod of both sexes with an average body weight (b.w.) around 400 g were supplied by Sekkingstad, Preserving AS, Hordaland, Norway. The fish were kept in 0.5 m^3 indoor glass fibre tanks, at Industrial Laboratory (ILAB), Bergen High Technology Centre (Bergen, Norway), provided with continuously flowing seawater at a temperature of 8 ± 0.5°C and a salinity of 3.4%. Throughout the experimental period, the fish were subjected to continuous 24 h artificial light (the regime the farm used for optimal fish growth). The fish were acclimated to these conditions for five days prior to the experimental period. […] Control fish were injected with 5 ml peanut oil/kg b.w. (vehicle). There were eight to nine fish in each treatment group. When designing the experiment, we could only test one combination due to limited fish numbers.
(§2) After five days exposure, the fish were sacrificed by a sharp blow to the head. Blood samples were collected from the dorsal vein using a heparinized syringe and the liver was quickly dissected out and placed in ice-cold homogenization buffer (0.1 M sodium phosphate buffer pH 7.4, containing 0.15 M KCl, 1 mM EDTA and 1 mM DTT). Liver microsomes were prepared according to the published protocol by Goksøyr, and stored at -80°C. Total microsomal protein content was measured according to a published method by Bradford, using bovine serum albumin as standard, and a SpectraFluor spectrophotometer from Tecan (Grödig/Salzburg, Austria). Blood plasma was isolated by centrifugation at 5,000 g for 10 min at room temperature and stored at -80°C. Ethical approval licence number of ILAB Bergen: 119. Experiment no. 0204.

[2] = test system: vitellogenin; assay: Plasma vitellogenin analysis (ELISA); type: in vivo, Atlantic cod (Gadus morhua); conditions: i.p., 5 days; for Vitellogenin plasma level: mean (SD), n = 7–8; for Effect on plasma vitellogenin: in words
Procedure: (§3) Ethical approval licence number of ILAB Bergen: 119. Experiment no. 0204.
Plasma levels of vitellogenin protein were determined using a non-competitive sandwich ELISA kit and employing rabbit PAb against Atlantic cod vitellogenin from Biosense Laboratories AS (Bergen, Norway). Each plasma sample was diluted (1:20, 1:15,000 and 1:50,000) and 100 μl was analyzed and compared to purified Atlantic cod vitellogenin protein standards (ranging between 0.12 and 2,000 ng/ml). The signal was detected at A492 after 15 min incubation with substrate solution, using a VICTOR™ 1420 Multilabel Counter.

[3] = test system: Hepatic Microsomal CYP3A activity; design: method as in PMID 15084407; conditions: pooled cod liver microsomes; substrate BFC; published earlier, ref [22]; read-out: IC50, hepatic microsomal CYP3A (BFCOD) activity; cited from earlier work
[4] = test system: hepatic BFCOD activities; conditions: ref [13],[22]; read-out: IC50, hepatic BFCOD activity in rainbow trout; cited from earlier work
[5] = test system: 17β-estradiol; assay: Plasma 17β-estradiol analysis (EIA); type: in vivo, Atlantic cod (Gadus morhua); conditions: i.p., 5 days; for 17β-Estradiol plasma level: mean (SD), n = 8; for Effect on 17β-estradiol plasma levels: compared to vehicle or single compounds, in words
Procedure: as §3
(§4) Plasma levels of 17β-estradiol and testosterone were determined using competitive EIA kits from Cayman Chemical (Ann Arbor, MI, USA). Plasma levels of 11-keto-testosterone were analyzed using a competitive EIA kit, from Biosense Laboratories AS (Bergen, Norway). Plasma from each fish was concentrated (2:1) by extraction once with six volumes diethyl ether and 50 μl was analyzed and compared to purified standard substances. The signals were detected at A405 after 40 min (17β-estradiol), 60 min (testosterone) or 80 min (11-keto-testosterone) incubation with substrate solution, using a VICTOR™ 1420 Multilabel Counter.

[6] = test system: hepatic BFCOD activities; conditions: ref [13],[22]; read-out: IC50, hepatic BFCOD activity in killifish; cited from earlier work
[7] = test system: CYP3A; assay: In vitro inhibition of CYP3A-mediated BFCOD activity in pooled liver microsomes; conditions: both, Atlantic cod (Gadus morhua)
Procedure: (§5) For in vitro inhibition studies, feral Atlantic cod of both sexes were caught off the West coast of Sweden and placed in concrete basins provided with recirculating aerated seawater at 10 ± 2°C and a salinity of 3.0% and alternative light/dark photoperiods of 12 hours. Prior to sampling, the animals were starved and acclimated to these conditions for three weeks. Eight fish were injected i.p. with β-naphthoflavone (BNF), 50 mg/kg b.w. dissolved in peanut oil (5.0 mg/ml). The fish were placed in a 100 l glass aquarium provided with aerated seawater (above) and 30% of the water volume was replaced each day. To eliminate visual stress, the sides of the aquaria were covered with black plastic sheets. After 3 days exposure, the fish were sacrificed. Livers were quickly dissected out and placed in ice-cold homogenization buffer. Livers were pooled from twenty untreated Atlantic cod and from eight BNF treated Atlantic cod, respectively. Microsomal fractions were isolated (above) and stored in aliquots at -80°C. Ethical approval from the Ethical committee of Göteborg license number (99–2003).
(§6) The CYP1A activity was determined as EROD activity, using resorufin as standard in a SpectraFluor plate reader according to the protocol provided by Nilsen et al.. The CYP3A catalytic activity was measured as BFCOD activity, using HFC as standard. The BFC assay was performed based on a published protocol by Miller et al. and optimized for rainbow trout liver microsomes (T. Hegelund and M. Celander, unpublished data). The reaction mixture consisted of 200 μM BFC, bovine serum albumin (1.6 mg/ml), 2 μM NADPH and 10 μl liver microsomes in a total volume of 200 μl in 0.2 M potassium phosphate buffer pH 7.4 in a 96-multiwell plate using a VICTOR™ 1420 Multilabel Counter from Wallac Sverige AB (Upplands Väsby, Sweden).
(§7) In vitro inhibition studies were carried out in 96-multiwell plates using a VICTOR™ 1420 Multilabel Counter. […] The substances were dissolved in DMSO and diluted with ethanol. The final concentrations never exceeded 0.01% (v/v) DMSO and 0.001% ethanol (v/v). For CYP1A and CYP3A inhibition studies, pooled liver microsomes from BNF-treated and from untreated Atlantic cod, respectively, were used.

[8] = test system: Hepatic Microsomal CYP3A activity; assay: as above; conditions: for Type of inhibition of CYP3A (BFCOD) activity: cod liver microsomes, Dixon plots
Procedure: as §5, §6, §7

[9] = test system: 11-keto-testosterone; assay: Plasma 11-keto-testosterone analysis (EIA); type: in vivo, Atlantic cod (Gadus morhua); conditions: i.p., 5 days; for 11-Keto-Testosterone plasma level: mean (SD), n = 6–8; for Effect on 11-keto-testosterone plasma levels: compared to vehicle or single compounds, in words
Procedure: as §3, §4

[10] = test system: CYP3A; assay: In vitro pre-incubation of liver microsomes followed by CYP3A western blot; conditions: pooled cod liver microsomes pre-incubated 10, 30, 60 min
Procedure: The CYP3A western blot analysis was performed as described above.

[11] = test system: CYP3A; assay: In vivo hepatic CYP3A protein expression (western blot); conditions: i.p., 5 days, KC 12, NP 25, KC+NP 12+25 mg/kg
Procedure: as §1, with “There were eight to nine fish in each treatment group. When designing the experiment, we could only test one combination due to limited fish numbers.” left out
(§8) After five days exposure, the fish were sacrificed by a sharp blow to the head. […] Total microsomal protein content was measured according to a published method by Bradford, using bovine serum albumin as standard, and a SpectraFluor spectrophotometer from Tecan (Grödig/Salzburg, Austria). […]
(§9) Western blot analyses of 40 μg hepatic microsomal protein were carried out using enhanced chemoluminescence (ECL), based on the protocol previously described and PAb raised against rainbow trout CYP1A and CYP3A [41, 55, 56]. The intensity of each protein band was determined by densitometry on scanned fluorograms using Labview 7.0 from National Instruments (Austin, TX, USA).

[12] = test system: testosterone; assay: Plasma testosterone analysis (EIA); type: in vivo, Atlantic cod (Gadus morhua); conditions: i.p., 5 days
Procedure: as §1
as §2, with “Liver microsomes were prepared according to the published protocol by Goksøyr, and stored at -80°C.” left out, “Blood plasma was isolated by centrifugation at 5,000 g for 10 min at room temperature and stored at -80°C. Ethical approval licence number of ILAB Bergen: 119. Experiment no. 0204.” left out

[13] = target: T1, Hepatic Microsomal CYP1A activity (Gadus morhua, UniProt A0ACE1MZ74); assay: In vitro inhibition of CYP1A-mediated EROD activity in pooled liver microsomes; conditions: for Type of inhibition of CYP1A (EROD) activity: cod liver microsomes, Dixon plots
T1 sequence (A0ACE1MZ74 1-519): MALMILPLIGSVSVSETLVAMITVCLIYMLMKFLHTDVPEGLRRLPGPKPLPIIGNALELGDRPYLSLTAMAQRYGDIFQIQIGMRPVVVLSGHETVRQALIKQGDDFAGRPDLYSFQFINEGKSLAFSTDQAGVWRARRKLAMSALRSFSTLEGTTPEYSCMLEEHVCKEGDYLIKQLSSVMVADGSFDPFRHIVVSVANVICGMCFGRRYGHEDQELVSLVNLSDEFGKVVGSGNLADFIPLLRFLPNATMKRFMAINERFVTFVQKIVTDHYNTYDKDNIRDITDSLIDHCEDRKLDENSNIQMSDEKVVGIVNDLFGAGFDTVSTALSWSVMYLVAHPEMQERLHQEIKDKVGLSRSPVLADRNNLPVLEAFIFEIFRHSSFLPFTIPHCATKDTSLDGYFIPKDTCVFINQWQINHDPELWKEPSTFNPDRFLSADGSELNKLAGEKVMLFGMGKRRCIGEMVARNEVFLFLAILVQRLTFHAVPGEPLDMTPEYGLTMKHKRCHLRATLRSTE
Procedure: as §5, §6, §7

[14] = target: T2, CYP1A (Gadus morhua, UniProt A0ACE1MZ74); assay: as above; conditions: both, Atlantic cod (Gadus morhua); for Ki: hepatic microsomal CYP1A (EROD) activity
T2 sequence (A0ACE1MZ74 1-519): T1 sequence (A0ACE1MZ74 1-519)
Procedure: as §5, §6, §7

[15] = test system: CYP1A; assay: In vivo hepatic CYP1A protein expression (western blot); conditions: i.p., 5 days, NP 25 mg/kg, ethynylestradiol 5 mg/kg
Procedure: as §1, with “There were eight to nine fish in each treatment group. When designing the experiment, we could only test one combination due to limited fish numbers.” left out
as §8, §9

[16] = test system: CYP1A; assay: In vivo hepatic CYP1A enzyme (EROD) activity after i.p. exposure; conditions: 5 days, NP 25 mg/kg, ethynylestradiol 5 mg/kg
Procedure: as §1, §8
The CYP1A activity was determined as EROD activity, using resorufin as standard in a SpectraFluor plate reader according to the protocol provided by Nilsen et al.. The CYP3A catalytic activity was measured as BFCOD activity, using HFC as standard. […]

[17] = target: T3, cDNA Expressed Human CYP3A4 (Homo sapiens, UniProt P08684); assay: Inhibition of BFCOD activity in cDNA expressed human CYP3A4 baculovirus supersomes; type: biochemical; conditions: substrate BFC
T3 construct: purchased BD Biosciences Company, Gentest (Woburn, MA, USA); host or cells: baculovirus expression system (supersomes)
T3 sequence (P08684 whole entry): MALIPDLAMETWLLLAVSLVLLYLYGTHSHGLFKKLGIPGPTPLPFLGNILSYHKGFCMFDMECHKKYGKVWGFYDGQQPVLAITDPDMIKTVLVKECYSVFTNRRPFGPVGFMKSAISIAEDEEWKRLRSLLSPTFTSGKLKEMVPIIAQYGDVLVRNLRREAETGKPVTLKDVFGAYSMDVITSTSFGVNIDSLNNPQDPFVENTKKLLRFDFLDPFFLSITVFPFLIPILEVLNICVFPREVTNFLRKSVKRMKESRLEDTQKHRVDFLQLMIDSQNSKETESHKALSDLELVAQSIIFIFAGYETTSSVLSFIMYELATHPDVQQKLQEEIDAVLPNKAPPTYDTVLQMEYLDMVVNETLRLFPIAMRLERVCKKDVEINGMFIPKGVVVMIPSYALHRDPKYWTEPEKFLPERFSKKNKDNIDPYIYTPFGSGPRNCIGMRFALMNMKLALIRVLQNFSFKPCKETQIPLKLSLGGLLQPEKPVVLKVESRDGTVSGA

[18] = 2D gel immunoblot, pooled liver microsomes of 8–9 treated fish
[19] = no [S] level stated, Dixon plot

Row | SMILES | Induction of the more basic CYP3A-immunoreactive isoform (pI around 5.1) [1, 18] | Vitellogenin plasma level [2] | 17β-Estradiol plasma level [5] | Type of inhibition of CYP3A (BFCOD) activity [8] | 11-Keto-Testosterone plasma level [9] | Effect on CYP3A protein expression [11] | Effect on plasma vitellogenin [2] | Effect on 17β-estradiol plasma levels [5] | IC50 ([7]; microsomes, pH 7.4) [µM] | Effect on 11-keto-testosterone plasma levels [9] | Type of inhibition of CYP1A (EROD) activity [13] | IC50 [14] [µM] | Ki [14, 19] [µM] | further results
1 | CC(=O)N1CCN(c2ccc(OCC3COC(Cn4ccnc4)(c4ccc(Cl)cc4Cl)O3)cc2)CC1 (stereo not shown) [ketoconazole] | inducible; also recorded: induced | 0.6 (0.9) μg/ml plasma | 60 (26) pg/ml plasma | non-competitive inhibitor | 71 (46) pg/ml plasma | no effect |  |  |  |  |  |  |  | IC50 [3]: 300 nM; IC50 [4]: 100 nM; IC50 [6]: 10 nM; Ki ([7]; microsomes, pH 7.4): […]; Ki, hepatic microsomal CYP3A (BFCOD) activity [8, 19]: sub-μM range; Effect of pre-incubation on hepatic microsomal CYP3A protein levels [10]: no effects
2 | C#C[C@]1(O)CC[C@H]2[C@@H]3CCc4cc(O)ccc4[C@H]3CC[C@@]21C [ethynylestradiol, 17α-ethynylestradiol] |  | 4,350 (1,463) ^a μg/ml plasma | 100 (69) pg/ml plasma | uncompetitive inhibitor | 35 (23) pg/ml plasma |  | induction | no statistically significant effect | 40 | no statistically significant effect | non-competitive inhibitor | 20 | 5.4 to 10.3 | Induction of the more basic CYP3A-immunoreactive isoform (pI around 5.1) ([1]; in vivo): did not induce; Effect on testosterone plasma levels ([12]; compared to vehicle or single compounds, in words): no statistically significant effect; Testosterone plasma level ([12]; mean (SD), n = 7–8): 90 (40) pg/ml plasma; Ki ([7]; pooled liver microsomes from untreated Atlantic cod, pH 7.4, probe BFC): 54 to 95 µM; Ki ([7]; pooled liver microsomes from untreated Atlantic cod, pH 7.4, probe BFC (high [S])): 95 µM; Ki ([7]; pooled liver microsomes from untreated Atlantic cod, pH 7.4, probe BFC (low [S])): 54 µM; Ki ([14]; high [S], high [S] 7-ethoxyresorufin, one representative Dixon plot): 10.3 µM; Ki ([14]; low [S], low [S] 7-ethoxyresorufin, one representative Dixon plot): 5.4 µM
3 | CCCCCCCCCc1ccc(O)cc1 [nonylphenol, 4-nonylphenol] | did not induce | 266 (199) ^a μg/ml plasma | 76 (52) pg/ml plasma |  | 42 (67) pg/ml plasma | no effect | induction | no statistically significant effect | 160 | no statistically significant effect | non-competitively inhibited | 5.2 | ~3.5 | Effect on CYP1A protein expression [15]: no effect; Decrease in CYP1A (EROD) activity compared to fish exposed to ketoconazole + nonylphenol [16]: 65%; Reduction of CYP1A (EROD) activity compared to vehicle treated fish [16]: 41% and 40%; IC50 [17]: 35 µM; Type of inhibition of CYP1A (EROD) activity ([13]; listed as Nonylphenol): non-competitive inhibitor; Ki ([13]; read-out: Ki, hepatic microsomal CYP1A (EROD) activity, no [S] level stated, Dixon plot, listed as Nonylphenol (NP)): 3.5 µM
